The source of these data is patent US10899754B2, “Modulators of indoleamine 2,3-dioxygenase” (GLAXOSMITHKLINE INTELLECTUAL PROPERTY DEVELOPMENT LIMITED, priority 2016, dated 2021).

Data set [1] concerns the target indoleamine 2, 3-dioxygenase (IDO1) (Homo sapiens, UniProt P14902). The data set can be described thus: IDO1 PBMC RapidFire MS assay (kynurenine detection by mass spectrometry). It counts as cell-based. On the set-up: to induce the expression of indoleamine 2, 3-dioxygenase (IDO1); host or cells: human PBMC stimulated with IFN-gamma and LPS. The conditions noted are these: human PBMC stimulated with IFN-γ and LPS, 2 days, pIC50, read-out: PBMC PXC50 (converted). The method in brief:
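PBMCs (50,000 cells/well) stimulated with IFN-γ 100 ng/ml plus LPS 50 ng/ml, treated with 11-point 3-fold compound series for 2 days at 37° C. Supernatant kynurenine measured by RapidFire MS, normalised to internal standard; parallel cytotoxicity by CellTiter-Glo luminescence; curves fitted for XC50.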

Data set [2] is described as follows: Tolerability, body weight and hepatic functions in Beagle dogs, 7 day repeat oral administration. It counts as in vivo. The conditions noted are these: Beagle dog, 20 mg/kg PO BID for 7 days. The protocol: FIG. 1 is daily body weights of Beagle dogs during the study of example 23, 20 mg/kg PO BID dose.
FIG. 2 is daily hepatic enzyme levels of Beagle dogs during the study: ALT (alanine aminotransferase), AST (aspartate aminotransferase), ALP (alkaline phosphatase) and T-Bil (total bilirubin) for example 23, 20 mg/kg PO BID dose.
(§1) To understand its toxicokinetics and potential effect on hepatic functions, EXAMPLE 23 was orally dosed to Beagle dogs for 7 consecutive days.

Data set [3] is described as follows: Toxicokinetics in Beagle dogs, 7 day repeat oral administration. It counts as in vivo. The settings on record: 20 mg/kg PO BID; for Therapeutic Index AUC (0-12 hr): versus predicted human efficacious AUC 0.376 μg * hr/mL; for Therapeutic Index Cmax: versus predicted human efficacious Cmax 0.078 μg/mL; for Cmax / AUC(0-t): Beagle, dog, po, 20 mg/kg; for Cmax / AUC(0-t) / Tmax: plasma; for AUC(0-t): Subject 1, read-out: AUC (0-12 hr).
Excerpt: as §1

Read-outs that look alike come from different tables or passages of the source.

Sequence of indoleamine 2, 3-dioxygenase (IDO1) (P14902 whole entry): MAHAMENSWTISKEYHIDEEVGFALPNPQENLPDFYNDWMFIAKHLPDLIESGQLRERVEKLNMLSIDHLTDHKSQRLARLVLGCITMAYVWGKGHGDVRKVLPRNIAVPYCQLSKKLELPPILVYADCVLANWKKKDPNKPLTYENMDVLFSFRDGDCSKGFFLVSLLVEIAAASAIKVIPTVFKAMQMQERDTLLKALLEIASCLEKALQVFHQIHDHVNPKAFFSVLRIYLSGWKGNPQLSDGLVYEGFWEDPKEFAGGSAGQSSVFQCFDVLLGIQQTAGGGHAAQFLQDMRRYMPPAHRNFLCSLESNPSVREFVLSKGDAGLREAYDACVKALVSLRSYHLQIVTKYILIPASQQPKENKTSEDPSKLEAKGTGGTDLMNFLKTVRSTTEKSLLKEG

`CC(C)CN(c1ccc([C@H](C)CC(=O)O)cc1Nc1nc(C(F)(F)F)ns1)C1CCOCC1` [Example 20, (R)-3-(4-(Isobutyl(tetrahydro-2H-pyran-4-yl)amino)-3-((3-(trifluoromethyl)-1,2,4-thiadiazol-5-yl)amino)phenyl)butanoic Acid]: the IC50 in data set [1] was 2.51 nM.
Take `CC(C)CN(c1ccc([C@H](C)CC(=O)O)cc1Nc1nnc(C2CC2)s1)C1CCOCC1` [Example 23, (R)-3-(3-((5-cyclopropyl-1,3,4-thiadiazol-2-yl)amino)-4-(isobutyl (tetrahydro-2H-pyran-4-yl)amino)phenyl)butanoic Acid]: in data set [1], the IC50 is 3.16 nM. Besides, the Clinical observations result in data set [2] is reported as “no clinical observations were made”. Further, the “Tolerability throughout the study” value in data set [2] is “well tolerated”. The “Hepatic functions measured by serum ALT, AST, ALP and T-Bil levels” value in data set [2] (FIG. 2) is “in the normal variable ranges”. Moreover, the Body weights entry in data set [2] (male and female, FIG. 1) is “constant”. Further, the “Therapeutic Index AUC (0-12 hr)” value is on record as 4 in data set [3] (Beagle dog, Day1, Female); 14 in data set [3] (Beagle dog, Day1, Male); 10 in data set [3] (Beagle dog, Day7, Female); 40 in data set [3] (Beagle dog, Day7, Male). Besides, the “Therapeutic Index Cmax” value in data set [3] (Beagle dog, Day1, Female) was 13; in data set [3] (Beagle dog, Day1, Male), 31; in data set [3] (Beagle dog, Day7, Female) it was 50; in data set [3] (Beagle dog, Day7, Male), 81. Besides, in data set [3] (Beagle dog, Day 7, average), the “Therapeutic coverage in AUC0-12 for the predicted human efficacious dose” value is approximately 25 fold. Moreover, in data set [3] (Beagle dog, Day 7, average), the “Therapeutic coverage in Cmax for the predicted human efficacious dose” value is approximately 66 fold. Further, the “Time quantifiable in plasma post the start of the oral dose” value in data set [3] (Beagle dog, Days 1 and 7) was “up to 24 hours”. Besides, in data set [3] (Beagle dog, both dogs), the “Increase in systemic exposures (Cmax and AUC0-12 values) on Day 7 in comparison to Day 1” value was approximately 3 fold. Also, the Cmax in data set [3] (female, Day1, Female, Subject 1) amounted to 1000 ng/mL; in data set [3] (female, Day7, Female, Subject 1) it was 3900 ng/mL; in data set [3] (male, Day1, Male, Subject 1), 2400 ng/mL; in data set [3] (male, Day7, Male, Subject 1), 6300 ng/mL. In addition, the AUC(0-t) in data set [3] (female, Day1, Female) worked out at 1500 ng·h/mL; in data set [3] (female, Day7, Female), 3800 ng·h/mL; in data set [3] (male, Day1, Male), 5100 ng·h/mL; in data set [3] (male, Day7, Male) it was 14900 ng·h/mL. For the same compound, the time of peak concentration (Tmax) in data set [3] (Beagle dog, Day1, Male, Subject 1) amounted to 30 min; in data set [3] (Beagle dog, Day7, Female, Subject 1) it was 30 min; in data set [3] (Beagle dog, post dose on Days 1 and 7), 30 min.

The Cmax is the peak of the concentration-time curve. Usually Tmax stands for the time at which the peak concentration occurs.
